What was measured:
BCR-NTRK3 BaF3 cells = target: T1, BCR-NTRK3 BaF3 cells (Homo sapiens, UniProt Q16288); test: BaF3 BCR-NTRK3 cell proliferation assay (ATPlite); format: cell-based; details: read-out: Inhibition of Cell Proliferation IC50, BCR/BaF3 TrkC
T1 construct: fused on or other part: P11274 (Breakpoint cluster region protein)
Method: Compounds are assessed in a variety of cell based assays. For example BaF3 cells engineered with any of BCR-FMS, BCR-KIT, BCR-FLT3, BCR-NTRK1, BCR-NTRK2, and BCR-NTRK3, are used in cell proliferation assays to assess inhibitory activity of Fms, Kit, Flt-3, TrkA, TrkB, and TrkC, respectively. An MV-4-11 (leukemia) cell proliferation assay is used to assess inhibitory activity in Flt-3, and SKNSH (human neuroblastoma) cell proliferation assay is used to assess efficacy of Fms/Trk inhibitors. Additional cells may be assayed similarly to assess the efficacy of Fms/Trk inhibitors, such as MiaPaCa (human pancreatic cancer) and Capan-1 (human pancreatic carcinoma) cells. Reagent and assay conditions are as follows: • BaF3 cells: • Maintained in RPMI containing 10% FBS, 1% PenStrep, 1% NEAA, and 1% L-Glutamine, supplemented with 1 mg/mL G418 and 5% WEHI-CM (or recombinant murine IL-3). • Confluent cells are split 1:50 to 1:100 every 3-4 days. • MV-4-11 cells: • Maintained in Iscove's Modified Dulbecco's Medium containing 10% FBS. • Confluent cells are split 1:4 every 3-4 days. • SKNSH cells: RPMI containing 10% FBS. On day 1, cells are counted, then centrifuged in a conical tube for 5 minutes at 1000 rpm. The supernatant is removed and cells are re-suspended as follows: • BaF3: resuspend in growth media +1 mg/mL G418 (without WEHFIL-3) to 2×10^5 cells/mL. • MV-4-11: resuspend in growth media to 5×10^5 cells/mL. • SKNSH: resuspend in growth media to 2×10^4 cells/mL. The cells are plated (50 μL, 150 μL for SKNSH cells) in each well of a 96-well dish (Corning 3610) and incubated at 37° C. in 5% CO2 overnight, cells plated to a final concentration of cells as follows: • BaF3: 10,000 cells per well. • MV-4-11: 25,000 cells per well. • SKNSH: 3,000 cells per well. On day 2, compound at a maximum concentration of 5 mM is serially diluted 1:3 for a total of 8 point titration with DMSO as a control. A 1 μL aliquot of each dilution point is added to 249 μL growth media and 50 μL is added to a well containing cells, providing 10 μM compound for the maximum concentration point. The cells are incubated for 3 days at 37° C. in 5% CO2. For SKNSH cells, a 0.75 μL aliquot of appropriate dilution in DMSO is added to 150 μL of cells. On day 5, ATPlite 1 step Luminescence Assay System (Perkin Elmer #6016739) is brought to room temperature along with the cell cultures. ATPlite is added to each well as follows: • BaF3: 25 μL per well. • MV-4-11: 40 μL per well. • SKNSH: 20 μL per well. The cells are incubated at room temperature for 10 minutes, then luminescence is read on Safire reader. The measured luminescence correlates directly with cell number, such that the reading as a function of compound concentration is used to determine the IC50 value.
It is understood that the results of these assays may vary as assay conditions are varied. Inhibition levels determined under the conditions described herein represent a relative activity for the compounds tested under the specific conditions employed. The cell based assays are likely to show variability due to the complexity of the system and the sensitivity thereof to any changes in the assay conditions. […] Results for compounds that are tested and show substantially no inhibition below the highest tested concentration are represented as “-” in the tables below. In some instances, the compounds were not tested in all of the assays, or assay results were not valid, as indicated by NA in the tables below.

CYP2C9 = CYP2C9 (Homo sapiens, UniProt P11712); test: CYP2C9 inhibition (fluorescent substrate MFC); format: in vitro ADME; details: read-out: Cyp IC50 2C9
Method: (§1) CYP (Cytochrome P450) enzymes are the major drug metabolizing enzymes present in the liver. The inhibition of CYP enzyme activity (IC50) for each of CYP1A2, CYP2C19, CYP2C9, CYP2D6, CYP3A4(BFC) and CYP3A4(BQ) is determined for compounds, where inhibition of metabolism of a known substrate leads to a decrease in the fluorescence of the metabolized product. The fluorescence of the product is monitored as a function of compound concentration. Compounds are dissolved in DMSO to a concentration of 100 mM. These are diluted 1 μL into 82 μL of acetonitrile. An 11 μL aliquot of this solution is then added to 204 μL of cofactor mix (1.3% NADPH Regeneration system Solution A, 1.04% NADPH Regeneration system Solution B from BD Biosciences, 5% acetonitrile and 0.05% DMSO). These are then serially diluted 1:1 (160 μL to 160 μL co-factor mix) for a total of 10 points. A 10 μL aliquot of this final mixture is dispensed into 384 well assay plates and incubated for 10 minutes at 37° C. […] Assay plates are incubated at 37° C. (CYP1A2-15 min; CYP2C9-45 min; CYP2C19, 2D6 and 3A4-30 min) and read in a Tecan Safire 2 plate reader (CYP1A2, 2C19 and 3A4 409 ex/460 em; CYP2C9 and 2D6 409 ex/530 em). The signal versus compound concentration is used to determine the IC50. The enzymes and substrates for this assay are obtained from BD Biosciences.

CYP2D6 = CYP2D6 (Homo sapiens, UniProt P10635); test: CYP2D6 inhibition (fluorescent substrate AMMC); format: in vitro ADME; details: read-out: Cyp IC50 2D6
Method: as §1

CYP3A4(BQ) = CYP3A4(BQ) (Homo sapiens, UniProt P08684); test: CYP3A4(BQ) inhibition; format: in vitro ADME; details: CYP3A4, substrate BQ; read-out: Cyp IC50 3A4(BQ)
Method: as §1

T1 sequence (Q16288 whole entry, the tested form may be a part): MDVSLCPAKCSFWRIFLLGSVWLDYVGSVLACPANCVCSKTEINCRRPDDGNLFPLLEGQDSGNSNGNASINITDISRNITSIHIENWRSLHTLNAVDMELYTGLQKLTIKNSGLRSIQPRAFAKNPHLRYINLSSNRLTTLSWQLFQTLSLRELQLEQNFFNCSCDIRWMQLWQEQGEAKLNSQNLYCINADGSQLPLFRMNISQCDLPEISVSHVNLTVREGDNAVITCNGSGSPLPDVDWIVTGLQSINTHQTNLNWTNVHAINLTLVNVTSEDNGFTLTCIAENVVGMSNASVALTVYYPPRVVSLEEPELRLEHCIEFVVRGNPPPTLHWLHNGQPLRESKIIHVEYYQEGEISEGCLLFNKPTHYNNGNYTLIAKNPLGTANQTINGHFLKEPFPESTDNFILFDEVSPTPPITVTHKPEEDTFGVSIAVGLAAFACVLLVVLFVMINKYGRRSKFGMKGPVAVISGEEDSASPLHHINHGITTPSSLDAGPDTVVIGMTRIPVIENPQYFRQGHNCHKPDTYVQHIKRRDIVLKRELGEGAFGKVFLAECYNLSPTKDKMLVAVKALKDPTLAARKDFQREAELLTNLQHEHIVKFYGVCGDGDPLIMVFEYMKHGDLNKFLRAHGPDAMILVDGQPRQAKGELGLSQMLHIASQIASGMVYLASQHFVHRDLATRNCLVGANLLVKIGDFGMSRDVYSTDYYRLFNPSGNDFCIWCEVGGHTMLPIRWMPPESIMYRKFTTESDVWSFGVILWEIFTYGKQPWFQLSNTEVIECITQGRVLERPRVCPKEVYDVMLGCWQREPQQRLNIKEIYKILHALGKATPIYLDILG
CYP3A4(BQ), sequence (P08684 whole entry): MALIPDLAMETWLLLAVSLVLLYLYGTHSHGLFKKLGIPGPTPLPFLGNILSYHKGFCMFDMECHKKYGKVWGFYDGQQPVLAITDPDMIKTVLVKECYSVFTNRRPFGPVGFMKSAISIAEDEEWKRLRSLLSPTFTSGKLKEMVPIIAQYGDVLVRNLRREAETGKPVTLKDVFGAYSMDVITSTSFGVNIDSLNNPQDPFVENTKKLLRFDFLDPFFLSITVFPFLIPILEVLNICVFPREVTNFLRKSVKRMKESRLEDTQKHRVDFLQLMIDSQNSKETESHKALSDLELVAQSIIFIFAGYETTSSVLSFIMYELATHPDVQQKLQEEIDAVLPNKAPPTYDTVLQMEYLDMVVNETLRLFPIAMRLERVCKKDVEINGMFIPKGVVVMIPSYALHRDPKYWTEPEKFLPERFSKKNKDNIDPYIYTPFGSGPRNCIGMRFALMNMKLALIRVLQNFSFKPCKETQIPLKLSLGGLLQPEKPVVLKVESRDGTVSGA
CYP2D6, sequence (P10635 whole entry): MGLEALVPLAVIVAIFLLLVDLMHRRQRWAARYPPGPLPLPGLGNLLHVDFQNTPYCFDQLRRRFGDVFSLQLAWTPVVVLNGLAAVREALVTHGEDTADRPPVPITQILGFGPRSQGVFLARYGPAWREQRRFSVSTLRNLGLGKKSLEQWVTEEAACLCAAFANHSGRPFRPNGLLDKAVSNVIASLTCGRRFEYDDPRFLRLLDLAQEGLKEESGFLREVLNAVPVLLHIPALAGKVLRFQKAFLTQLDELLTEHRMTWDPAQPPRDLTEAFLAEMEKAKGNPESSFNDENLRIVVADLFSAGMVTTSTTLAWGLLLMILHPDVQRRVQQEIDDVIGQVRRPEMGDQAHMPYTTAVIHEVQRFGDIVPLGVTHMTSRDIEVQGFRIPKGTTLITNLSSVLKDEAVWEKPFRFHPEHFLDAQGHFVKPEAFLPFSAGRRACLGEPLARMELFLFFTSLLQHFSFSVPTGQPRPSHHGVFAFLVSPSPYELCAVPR
CYP2C9, sequence (P11712 whole entry): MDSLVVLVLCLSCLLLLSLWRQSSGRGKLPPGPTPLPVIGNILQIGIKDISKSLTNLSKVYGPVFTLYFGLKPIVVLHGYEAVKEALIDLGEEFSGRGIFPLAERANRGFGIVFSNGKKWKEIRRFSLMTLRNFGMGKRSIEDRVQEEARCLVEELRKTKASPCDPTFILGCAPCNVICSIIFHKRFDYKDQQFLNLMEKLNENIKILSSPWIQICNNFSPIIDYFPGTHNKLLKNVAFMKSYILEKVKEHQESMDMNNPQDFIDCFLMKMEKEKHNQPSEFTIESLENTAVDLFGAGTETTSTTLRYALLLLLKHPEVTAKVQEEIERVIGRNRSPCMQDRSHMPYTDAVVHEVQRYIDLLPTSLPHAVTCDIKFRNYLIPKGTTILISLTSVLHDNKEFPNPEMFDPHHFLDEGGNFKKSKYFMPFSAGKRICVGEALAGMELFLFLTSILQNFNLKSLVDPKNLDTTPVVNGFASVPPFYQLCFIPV

With CC1CCC(Nc2ncc(Cc3c[nH]c4ncc(Cl)cc34)cn2)CC1 (stereo not drawn) [Compound P-3009, [5-(5-Chloro-1H-pyrrolo[2,3-b]pyridin-3-ylmethyl)-pyrimidin-2-yl]-(4-methyl-cyclohexyl)-amine] the IC50 (BCR-NTRK3 BaF3 cells) was greater than 10 µM, the IC50 (CYP2C9) was greater than 10 µM and the IC50 (CYP2D6) was greater than 10 µM.

For Fc1ccccc1Nc1ncc(Cc2c[nH]c3ncc(Cl)cc23)cn1 [Compound P-3014, [5-(5-Chloro-1H-pyrrolo[2,3-b]pyridin-3-ylmethyl)-pyrimidin-2-yl]-(2-fluoro-phenyl)-amine], the IC50 (BCR-NTRK3 BaF3 cells) was greater than 10 µM.

Clc1cnc2[nH]cc(Cc3cnc(Nc4ccccc4Cl)nc3)c2c1 [Compound P-3015, (2-Chloro-phenyl)-[5-(5-chloro-1H-pyrrolo[2,3-b]pyridin-3-ylmethyl)-pyrimidin-2-yl]-amine] gave an IC50 (BCR-NTRK3 BaF3 cells) greater than 10 µM.

CNc1ncnc2[nH]cc(C(=O)c3ccc(Nc4ccc(OC)nc4)nc3OC)c12 [Compound P-4085, [2-methoxy-6-[(6-methoxy-3-pyridyl)amino]-3-pyridyl]-[4-(methylamino)-7H-pyrrolo[2,3-d]pyrimidin-5-yl]methanone] showed an IC50 (BCR-NTRK3 BaF3 cells) of less than 0.1 µM.

Compound CCc1ccc(Nc2ccc(C(=O)c3c[nH]c4ncnc(NC5CCC(F)(F)CC5)c34)c(F)n2)cn1 [Compound P-4096, [4-[(4,4-difluorocyclohexyl)amino]-7H-pyrrolo[2,3-d]pyrimidin-5-yl]-[6-[(6-ethyl-3-pyridyl)amino]-2-fluoro-3-pyridyl]methanone] has an IC50 (CYP2C9) of less than 5 µM, an IC50 (CYP2D6) of less than 5 µM and an IC50 (CYP3A4(BQ)) of 5 to 10 µM.

With CCc1ccc(Nc2ccc(C(=O)c3c[nH]c4ncnc(N[C@@H](C)c5ccc(F)cc5)c34)c(F)n2)cn1 [Compound P-4097, [6-[(6-ethyl-3-pyridyl)amino]-2-fluoro-3-pyridyl]-[4-[[(1S)-1-(4-fluorophenyl)ethyl]amino]-7H-pyrrolo[2,3-d]pyrimidin-5-yl]methanone] the IC50 (CYP2C9) was less than 5 µM, the IC50 (CYP2D6) was less than 5 µM and the IC50 (CYP3A4(BQ)) was greater than 10 µM.

In the case of CCc1ccc(Nc2ccc(C(=O)c3c[nH]c4ncnc(NCCCOC)c34)c(F)n2)cn1 [Compound P-4098, [6-[(6-ethyl-3-pyridyl)amino]-2-fluoro-3-pyridyl]-[4-(3-methoxypropylamino)-7H-pyrrolo[2,3-d]pyrimidin-5-yl]methanone], the IC50 (CYP2C9) is reported as less than 5 µM, the IC50 (CYP2D6) is reported as less than 5 µM and the IC50 (CYP3A4(BQ)) is reported as greater than 10 µM.

Compound CCc1ccc(Nc2ccc(C(=O)c3c[nH]c4ncnc(NC5CCCC5)c34)c(F)n2)cn1 [Compound P-4099, [4-(cyclopentylamino)-7H-pyrrolo[2,3-d]pyrimidin-5-yl]-[6-[(6-ethyl-3-pyridyl)amino]-2-fluoro-3-pyridyl]methanone] has an IC50 (CYP2C9) of less than 5 µM, an IC50 (CYP2D6) of less than 5 µM and an IC50 (CYP3A4(BQ)) of less than 5 µM.

CCCCNc1ncnc2[nH]cc(C(=O)c3ccc(Nc4ccc(CC)nc4)nc3F)c12 [Compound P-4100, [4-(butylamino)-7H-pyrrolo[2,3-d]pyrimidin-5-yl]-[6-[(6-ethyl-3-pyridyl)amino]-2-fluoro-3-pyridyl]methanone] showed an IC50 (CYP2C9) of less than 5 µM, an IC50 (CYP2D6) of less than 5 µM and an IC50 (CYP3A4(BQ)) greater than 10 µM.

CC(C)Nc1ncnc2[nH]cc(C(=O)c3ccc(NC4CCCCC4)nc3F)c12 [Compound P-4101, [6-(cyclohexylamino)-2-fluoro-3-pyridyl]-[4-(isopropylamino)-7H-pyrrolo[2,3-d]pyrimidin-5-yl]methanone] showed an IC50 (CYP2C9) of 5 to 10 µM, an IC50 (CYP2D6) greater than 10 µM and an IC50 (CYP3A4(BQ)) greater than 10 µM.

Work on CNc1ncnc2[nH]cc(C(=O)c3ccc(NC4CCCCC4)nc3F)c12 [Compound P-4102, [6-(cyclohexylamino)-2-fluoro-3-pyridyl]-[4-(methylamino)-7H-pyrrolo[2,3-d]pyrimidin-5-yl]methanone] yielded an IC50 (CYP2C9) of less than 5 µM, an IC50 (CYP2D6) of less than 5 µM and an IC50 (CYP3A4(BQ)) greater than 10 µM.

Work on CC(C)Nc1ncnc2[nH]cc(C(=O)c3ccc(NC4CCCCC4)nc3Cl)c12 [Compound P-4109, [2-chloro-6-(cyclohexylamino)-3-pyridyl]-[4-(isopropylamino)-7H-pyrrolo[2,3-d]pyrimidin-5-yl]methanone] yielded an IC50 (CYP2C9) of 5 to 10 µM, an IC50 (CYP2D6) greater than 10 µM and an IC50 (CYP3A4(BQ)) greater than 10 µM.

From patent US8901118B2, “Compounds and methods for kinase modulation, and indications therefor” (Plexxikon Inc., priority 2010, dated 2014)
